{"source": "paper PMC8147764", "about": "“Heterologous Expression, Engineering and Characterization of a Novel Laccase of Agrocybe pediades with Promising Properties as Biocatalyst” (Journal of Fungi, 2021)", "biological_target": "T1, ApL (A. pediades laccase) (Agrocybe pediades, UniProt A0A8H4QKE8, V194E/N433D)", "T1 construct": "gene D9613_012768", "conditions": "read-out: IC50 (mM or v/v % ^a); DM variant; ABTS about 3 mM, citrate-phosphate pH 3; fluoride, TNC site"}
{"smiles": "F", "note": "[NaF]", "values": [{"measurement": "IC50", "result": "0.051 ± 0.002", "unit": "mM"}]}
